Results: US4029780A, “3-Piperazinyl 1,2,4-benzothiadiazine 1,1-dioxide derivatives their compositions and method of use” (Dainippon Pharmaceutical Co., Ltd., priority 1974, dated 1977)

How the values were obtained:
Male Wistar rats [1] = experiment: Effect on blood glucose (b), intraperitoneal; conditions: 300 mg/kg i.p.
Protocol: (b) Male Wistar rats weighing 260-285 g were used. […] 4 ml/kg of the above solution of each test compound was intraperitoneally administered to each animal. The blood samples were taken prior to dosing and 1, 3 and 6 hours after the administration and the plasma glucose levels were determined in a similar manner to that described in (a).

[2] = cited from earlier work
Male Wistar rats [3] = experiment: Effect on blood glucose (a), oral; conditions: 300 mg/kg p.o.
Protocol: (a) Male Wistar rats weighing 190-210 g were used. Each test compound was suspended in a concentration of 150 mg/ml in a 0.5% aqueous tragacanth solution and orally administered at a dose of 300 mg/kg by the stomach tube.

Male Wistar rats [4] = experiment: Effect on urine volume and electrolyte excretion; type: in vivo, rat; conditions: 100 mg/kg p.o.; for Cl- / K+ / Na+ / Na+/K+: urinary excretion over 5 hours
Protocol: Male Wistar rats weighing 220 to 260 g were used. Each test compound was suspended in a solution of tragacanth dissolved in a concentration of 0.5% in a 0.9% saline solution so that the volume of the resulting suspension to be administered would be always 25 ml/Kg. The test compounds were administered orally by the stomach tube to the animals at the prescribed doses. The animals were then placed in a metabolic cage and the urine was collected over a period of 5 hours. The total amount of sodium, potassium and chloride excreted was determined by Auto-Analyzer, made by Technicon Instruments Corporation.

[5] = system: Spontaneously hypertensive male rats; experiment: Antihypertensive activity in spontaneously hypertensive rats (oral, 10 successive days); type: in vivo, rat; conditions: 10 mg/kg/day p.o.
Protocol: Spontaneously hypertensive male rats [SHR, Jap. Circ. J. 27, 282-93 (1963)] being 18-23 weeks of age and having systolic blood pressure levels of 170-190 mmHg were used. The test compounds were each suspended in a 0.5% aqueous tragacanth solution and administered orally in a dose of 10 mg/kg/day by stomach tube to SHR once a day for 10 successive days. The blood pressure of conscious SHR was measured prior to dosing and 5 hours after administration. It was also measured once daily over a period of 7 days after the end of the treatment period. The measurement of the blood pressure was made by a plethysmographtail method [Jap. Circ. J. 27, 282-93 (1963)].

[6] = well known; cited from earlier work
[7] = Toxicity (LD50), JCL-ICR mice; conditions: mouse, in vivo
Description: (§1) Male and female JCL-ICR strain mice, weighing 20-30 g (each group: 8 mice), and male and female JCL-SD strain rats, weighing 150-250 g (each group: 8 rats) were used.

[8] = Toxicity (LD50), JCL-SD rats; conditions: rat, in vivo
Description: as §1

[9] = system: Spontaneously hypertensive rats; experiment: Glucose tolerance test; conditions: 300 mg/kg p.o. once a day, 22 days; 1.25 g/kg oral glucose
Protocol: Spontaneously hypertensive rats weighing 360 to 400 g were used. Each of the test compounds was suspended in a 0.5% aqueous tragacanth solution, and orally administered to the animals at a dose of 300 mg/kg once a day for 22 consecutive days. The control group was given only the 0.5% aqueous tragacanth solution. After the final administration, the animals were caused to fast for 20 hours, and subjected to a glucose tolerance test by an oral application of 1.25 g/kg of glucose.

[10] = day 0, 5 hours after administration
[11] = day 2, 5 hours after administration
[12] = day 4, 5 hours after administration
[13] = day 6, 5 hours after administration
[14] = day 8, 5 hours after administration
[15] = day 10, 24 hours after the final treatment
[16] = day 14, 120 hours after the final treatment
[17] = iv, female, dissolved with stoichiometric NaOH, 95% confidence limits in parentheses
[18] = iv, male, dissolved with stoichiometric NaOH, 95% confidence limits in parentheses
[19] = po, female, suspended in 0.5% tragacanth
[20] = po, male, suspended in 0.5% tragacanth
[21] = sc, female, dissolved with stoichiometric NaOH
[22] = sc, male, dissolved with stoichiometric NaOH

## CC1=Nc2ccc(Cl)cc2S(=O)(=O)N1 [Compound 3, 7-chloro-3-methyl-2H-1,2,4-benzothiadiazine 1,1-dioxide]
Male Wistar rats [1]; 0 hr (prior to dosing)
  Blood glucose: 100 mg/dL
Male Wistar rats [1]; 1 hr
  Blood glucose: 361 mg/dL
Male Wistar rats [1]; 3 hr
  Blood glucose: 599 mg/dL
Male Wistar rats [1]; 6 hr
  Blood glucose: 675 mg/dL
[2]; known
  Diuretic action: no diuretic action
[2]; literature
  Antidiuretic activity: antidiuretic effects (i.e., sodium and water retaining effect)
Male Wistar rats [3]; 0 hr (prior to dosing)
  Blood glucose: 111 mg/dL
Male Wistar rats [3]; 1 hr
  Blood glucose: 126 mg/dL
Male Wistar rats [3]; 3 hr
  Blood glucose: 125 mg/dL
Male Wistar rats [3]; 6 hr
  Blood glucose: 146 mg/dL
Male Wistar rats [3]; 10 hr
  Blood glucose: 148 mg/dL
Male Wistar rats [4]
  Cl-: 0.20 mEq
  K+: 0.37 mEq
  Na+: 0.17 mEq
  Na+/K+: 0.51
[5]; [10]
  Blood pressure: 155 mm Hg
[5]; day 0, prior to dosing (0)
  Blood pressure: 173 mm Hg
[5]; [11]
  Blood pressure: 146 mm Hg
[5]; day 2, prior to dosing (0)
  Blood pressure: 166 mm Hg
[5]; [12]
  Blood pressure: 151 mm Hg
[5]; day 4, prior to dosing (0)
  Blood pressure: 159 mm Hg
[5]; [13]
  Blood pressure: 143 mm Hg
[5]; day 6, prior to dosing (0)
  Blood pressure: 150 mm Hg
[5]; [14]
  Blood pressure: 137 mm Hg
[5]; day 8, prior to dosing (0)
  Blood pressure: 153 mm Hg
[5]; [15]
  Blood pressure: 144 mm Hg
[5]; [16]
  Blood pressure: 175 mm Hg
[6]
  Hyperglycemic effects: marked hyperglycemic effects

## CN1CCN(C2=Nc3ccc(Cl)cc3S(=O)(=O)N2)CC1 [Compound A, 7-chloro-3-(4-methyl-1-piperazinyl)-2H-1,2,4-benzothiadiazine 1,1-dioxide]
Male Wistar rats [1]; 0 hr (prior to dosing)
  Blood glucose: 94 mg/dL
Male Wistar rats [1]; 1 hr
  Blood glucose: 102 mg/dL
Male Wistar rats [1]; 3 hr
  Blood glucose: 103 mg/dL
Male Wistar rats [1]; 6 hr
  Blood glucose: 111 mg/dL
Male Wistar rats [1]; rats
  Effect on blood glucose level: substantially no effect
Male Wistar rats [3]; 0 hr (prior to dosing)
  Blood glucose: 105 mg/dL
Male Wistar rats [3]; 1 hr
  Blood glucose: 105 mg/dL
Male Wistar rats [3]; 3 hr
  Blood glucose: 107 mg/dL
Male Wistar rats [3]; 6 hr
  Blood glucose: 103 mg/dL
Male Wistar rats [3]; 10 hr
  Blood glucose: 110 mg/dL
Male Wistar rats [3]; rats
  Effect on blood glucose level: substantially no effect
[7]; [17]
  LD50 at 168 h: 242 mg/kg
[7]; [18]
  LD50 at 168 h: 267 mg/kg
[7]; [19]
  LD50 at 168 h: > 5000 mg/kg
[7]; [20]
  LD50 at 168 h: > 5000 mg/kg
[7]; [21]
  LD50 at 168 h: > 2410 mg/kg
[7]; [22]
  LD50 at 168 h: > 2410 mg/kg
Male Wistar rats [4]
  Change in Na+/K+: some increase
  Change in electrolyte excretion: no significant change
  Change in urine volume: no significant change
  Cl-: 0.90 mEq
  K+: 0.40 mEq
  Na+: 0.78 mEq
  Na+/K+: 1.93
Male Wistar rats [4]; 5 hours
  Urine volume: 3.58 mL
[5]; [10]
  Blood pressure: 172 mm Hg
[5]; day 0, prior to dosing (0)
  Blood pressure: 172 mm Hg
[5]; [11]
  Blood pressure: 155 mm Hg
[5]; day 2, prior to dosing (0)
  Blood pressure: 167 mm Hg
[5]; [12]
  Blood pressure: 151 mm Hg
[5]; day 4, prior to dosing (0)
  Blood pressure: 158 mm Hg
[5]; [13]
  Blood pressure: 131 mm Hg
[5]; day 6, prior to dosing (0)
  Blood pressure: 144 mm Hg
[5]; [14]
  Blood pressure: 135 mm Hg
[5]; day 8, prior to dosing (0)
  Blood pressure: 143 mm Hg
[5]; [15]
  Blood pressure: 139 mm Hg
[5]; [16]
  Blood pressure: 165 mm Hg
[8]; [17]
  LD50 at 168 h: 740 mg/kg
[8]; [18]
  LD50 at 168 h: 551 mg/kg
[8]; [19]
  LD50 at 168 h: > 5000 mg/kg
[8]; [20]
  LD50 at 168 h: > 5000 mg/kg
[8]; [21]
  LD50 at 168 h: > 1000 mg/kg
[8]; [22]
  LD50 at 168 h: > 1000 mg/kg
[9]
  Blood glucose levels after application of glucose, compared with control group: same glucose tolerance pattern as the control group
  Glucose tolerance: no abnormality was observed in glucose tolerance
